Reference: publication PMC12104086, “Identification of a multiple DAMP scavenger mimicking the DAMP-binding site of TLR4 to ameliorate lethal sepsis” (Frontiers in Immunology, 2025)

How the values were obtained:
RAW264.7 cells = experiment: MTS cytotoxicity assay; format: cell-based, mouse; details: 20 h, n=3-4, versus PBS
Experimental: (§1) Supplemental Figure 6: Toxicity Assay of OP18
(§2) Note: (A) RAW264.7 cells were treated with OP18 for 20 h and MTS assay was performed using a CellTiter 96® AQueous Non-Radioactive Cell Proliferation Assay kit (Promega, Madison, Wisconsin) according to the manufacturer’s instructions. (B) Mouse peritoneal macrophages were treated with OP18 for 20 h and CyQUANT™ LDH Cytotoxicity Assay (Thermo Fisher Scientific, Waltham, MA) was performed according to the manufacturer’s instruction s. Data are expressed as mean ± SEM (n=3-4 samples/group) and compared by one -way ANOVA and a Tukey’s multiple comparison test. ns: not significant, *p < 0.05 versus PBS (C, D) Sham mice were treated with OP18 for 20h and blood were collected. (C) IL-6 and (D) TNFα were […]
(§3) Data are expressed as mean ± SEM and compared by unpaired two -tailed Student’s t-test. not significant (ns) vs sham.
(§4) (1 picture or pasted object on this page, not shown here)

[1] = tested on: mouse peritoneal macrophages; experiment: LDH cytotoxicity assay; format: cell-based; details: 20 h, n=3-4, versus PBS
Experimental: as §1, §2, §3, §4

C57BL/6 mice (sham) = experiment: Cytokine production in sham mice treated with OP18; format: in vivo, mouse; details: OP18-treated sham versus sham, 20 h, blood, ELISA
Experimental: as §1, §2, §3, §4

[2] = tested on: C57BL/6 mice, cecal ligation and puncture (CLP); experiment: CLP lethal sepsis model, 20 h: plasma DAMPs, serum cytokines and organ injury markers; format: in vivo, mouse; details: 80 nmol/kg i.p. once at abdominal closure, 20 h after CLP; n = 7–9; scrambled: vs sham; OP18: vs scrambled peptide; p < 0.05
Experimental: Polymicrobial sepsis was induced in mice by cecal ligation and puncture (CLP) ([7], [23]). Mice were anesthetized with isoflurane, and a midline abdominal incision was performed. The cecum was ligated with a 4–0 silk suture 1 cm proximal from its distal extremity and puncture using a 22-G needle was made twice (through and through) for a 20-h study and once for a survival study. A control (scrambled peptide) or OP18, both with 80 nmol/kg body weight (BW), was injected intraperitoneally (i.p.) before the closure. Sham animals were subjected to a laparotomy without CLP. Following the surgery, 1 mL of saline was injected subcutaneously to avoid surgery-induced dehydration, and 0.05 mg/kg buprenorphine was injected subcutaneously as an analgesic; 20 h after the surgery, the blood and lungs were collected. In the 20-h model, antibiotics were not administered, whereas in the survival study, 0.5 mg/kg BW of Imipenem was injected subcutaneously.
Blood was collected, centrifuged at 1,000 × g for 10 min, and plasma or serum was separated. Plasma levels of eCIRP, HMGB1, and histone H3 were analyzed by ELISA kits according to the manufacturer’s instruction (eCIRP from American Research Products, Inc., Waltham, MA, USA, HMGB1 from Invitrogen, Thermo Fisher Scientific, and histone H3 from LS Bio, Shirley, MA, USA). Serum levels of IL-6 and TNF-α were analyzed by ELISA kits (IL-6 and TNF-α both from BD Biosciences, Franklin Lakes, NJ, USA) according to the manufacturer’s instruction. Serum levels of aspartate aminotransferase (AST), lactate dehydrogenase (LDH), blood urea nitrogen (BUN), and creatinine (Cre) were measured by specific colorimetric enzymatic assays (Pointe Scientific, Canton, MI). Absorbance was measured on a Synergy Neo2 (Agilent Technologies) according to the manufacturer’s instructions.
Figure 4 OP18 alleviates systemic inflammation and tissue injury in sepsis. Intraperitoneal injection of 80 nmol/kg scrambled peptide or 80 nmol/kg OP18 was performed on CLP mice before skin closure. Blood and lungs were collected 20 h after CLP. (A–C) Plasma levels of (A) eCIRP, (B) HMGB1, and (C) histone H3. (D–I) Serum levels of (D) IL-6, (E) TNF-α, (F) AST, (G) LDH, (H) BUN, and (I) Cre. Data are expressed as mean ± SEM (n = 7–9 samples/group) and were compared using one-way ANOVA followed by Tukey’s multiple comparison test. ^* p < 0.05 versus sham; ^# p < 0.05 versus scrambled peptide. Experiments were performed three times, and all data were used for analysis.

Molecule | cytotoxicity on macrophages (MTS) (RAW264.7 cells) | cytotoxicity on macrophages (LDH) [1] | IL-6 in sham mice (C57BL/6 mice (sham)) | TNFα in sham mice (C57BL/6 mice (sham)) | plasma HMGB1 level [2] | plasma eCIRP level [2] | plasma histone H3 level [2] | serum AST [2] | serum BUN [2] | serum Cre [2] | serum IL-6 [2] | serum LDH [2] | serum TNF-α [2]
CC[C@H](C)[C@H](NC(=O)[C@H](CC(N)=O)NC(=O)[C@H](CO)NC(=O)[C@H](CO)NC(=O)[C@H](CC(N)=O)NC(=O)[C@H](Cc1ccccc1)NC(=O)[C@H](CC(N)=O)NC(=O)CN)C(=O)N[C@@H](CCSC)C(=O)N[C@@H](CCCCN)C(=O)N[C@H](C(=O)N[C@@H](CS)C(=O)N[C@@H](CC(C)C)C(=O)N[C@@H](CCC(N)=O)C(=O)N[C@@H](CC(N)=O)C(=O)N[C@@H](CCCNC(=N)N)C(=O)NCC(=O)N[C@@H](CC(=O)O)C(=O)O)[C@@H](C)O [OP18] | did not observe any cytotoxicity | did not observe any cytotoxicity | No significant difference | No significant difference |  |  |  |  |  |  |  |  | 
NRKINMGSFTQCSNNLGD [scrambled peptide, scrambled control peptide for OP18 ([…])] |  |  |  |  | significantly elevated | significantly elevated | significantly elevated | significantly elevated | significantly elevated | significantly elevated | significantly elevated | significantly elevated | significantly elevated
